Measurements from patent US4920103A, “Modifications of mycinose and 3-O-demethylmycinose in tylosin-type macrolides” (Eli Lilly and Company, priority 1986, dated 1990).
Values after ≈ are worked out from the molar mass of the structure shown. Read-outs that look alike come from different tables or passages of the source.

Key:
Format in all cases: cell-based
[1] = test system: Staphylococcus aureus X1.1; assay: MIC, standard agar-dilution assay, S. aureus X1.1
Protocol: (§1) The MIC's in Table II were determined by standard agar-dilution assays. The MIC's in Table III were obtained using conventional broth-dilution microtiter tests.

[2] = test system: Staphylococcus aureus V41; assay: MIC, standard agar-dilution assay, S. aureus V41; conditions: Staphylococcus aureus, V41
Protocol: as §1

[3] = test system: Staphylococcus aureus X400; assay: MIC, standard agar-dilution assay, S. aureus X400
Protocol: as §1

[4] = test system: Staphylococcus aureus S13E; assay: MIC, standard agar-dilution assay, S. aureus S13E
Protocol: as §1

[5] = test system: Staphylococcus epidermidis EPI1; assay: MIC, standard agar-dilution assay, S. epidermidis EPI1
Protocol: as §1

[6] = test system: Staphylococcus epidermidis 222; assay: MIC, standard agar-dilution assay, S. epidermidis 222
Protocol: as §1

[7] = test system: Streptococcus pyogenes C203; assay: MIC, standard agar-dilution assay, S. pyogenes C203; conditions: Streptococcus pyogenes, C203
Protocol: as §1

[8] = test system: Streptococcus pneumoniae Park I; assay: MIC, standard agar-dilution assay, S. pneumoniae Park I; conditions: Streptococcus pneumoniae
Protocol: as §1

[9] = test system: Streptococcus Group D X66; assay: MIC, standard agar-dilution assay, Streptococcus Group D X66
Protocol: as §1

[10] = test system: Streptococcus Group D 2041; assay: MIC, standard agar-dilution assay, Streptococcus Group D 2041; conditions: GROUPD2041
Protocol: as §1

[11] = test system: Haemophilus influenzae C.L.; assay: MIC, standard agar-dilution assay, H. influenzae C.L.
Protocol: as §1

[12] = test system: Haemophilus influenzae 76; assay: MIC, standard agar-dilution assay, H. influenzae 76
Protocol: as §1

[13] = test system: Escherichia coli EC14; assay: MIC, standard agar-dilution assay, E. coli EC14
Protocol: as §1

[14] = test system: Klebsiella pneumoniae X68; assay: MIC, standard agar-dilution assay, K. pneumoniae X68
Protocol: as §1

[15] = test system: Pseudomonas aeruginosa X239; assay: MIC, standard agar-dilution assay, P. aeruginosa X239
Protocol: as §1

[16] = agar-dilution, ampicillin-sensitive strain, read-out: MIC
[17] = agar-dilution, ampicillin-resistant strain, read-out: MIC
[18] = agar-dilution, methicillin-resistant strain, read-out: MIC

Structure (SMILES)	MIC [1] [µg/mL]	MIC [2] [µg/mL]	MIC [3] [µg/mL]	MIC [4] [µg/mL]	MIC [5] [µg/mL]	MIC [6] [µg/mL]	MIC [7] [µg/mL]	MIC [8] [µg/mL]	MIC [9] [µg/mL]	MIC [10] [µg/mL]	MIC [11, 16] [µg/mL]	MIC [12, 17] [µg/mL]	MIC ([13]; agar-dilution, read-out: MIC) [µg/mL]	MIC ([14]; agar-dilution, read-out: MIC) [µg/mL]	MIC ([15]; agar-dilution, read-out: MIC) [µg/mL]	MIC [11] [µg/mL]	other results
CCC1OC(=O)CC(O)C(C)C(OC2OC(C)C(O)C(N(C)C)C2O)C(CCOc2ccccc2)CC(C)C(=O)C=CC(C)=CC1COC1OC(C)C(I)C(OC)C1OC (stereo not drawn) [Compound 19, 4"-Deoxy-4"-iodo-20-DH-20-O-phenyl-desmycosin]	8 (≈ 8.33 µM)	8 (≈ 8.33 µM)	8 (≈ 8.33 µM)	8 (≈ 8.33 µM)	8 (≈ 8.33 µM)	8 (≈ 8.33 µM)	8 (≈ 8.33 µM)	8 (≈ 8.33 µM)	8 (≈ 8.33 µM)	8 (≈ 8.33 µM)	> 128	> 128	> 128	> 128	> 128	–	–
CCC1OC(=O)CC(O)C(C)C(OC2OC(C)C(O)C(N(C)C)C2O)C(CCOc2ccccc2)CC(C)C(=O)C=CC(C)=CC1COC1OC(C)C(N(C)CC#N)C(OC)C1OC (stereo not drawn) [Compound 29, 4"-[(Cyanomethyl)methylamino]-4"-deoxy-20-DH-20-O-phenyl-desmycosin]	2 (≈ 2.22 µM)	2 (≈ 2.22 µM)	2 (≈ 2.22 µM)	2 (≈ 2.22 µM)	1 (≈ 1.11 µM)	2 (≈ 2.22 µM)	–	–	32 (≈ 35.5 µM)	64 (≈ 70.9 µM)	–	–	–	–	–	16 (≈ 17.7 µM)	MIC [12]: 32 µg/mL (≈ 35.5 µM); MIC [13]: > 128 µg/mL; MIC [14]: > 128 µg/mL; MIC [15]: > 128 µg/mL
CCCN(CCC)C1C(C)OC(OCC2C=C(C)C=CC(=O)C(C)CC(CCOc3ccccc3)C(OC3OC(C)C(O)C(N(C)C)C3O)C(C)C(O)CC(=O)OC2CC)C(OC)C1OC (stereo not drawn) [Compound 48, 4"-Deoxy-20-DH-20-O-phenyl-4"-[di-(n-propyl)amino]desmycosin]	16 (≈ 17.1 µM)	16 (≈ 17.1 µM)	16 (≈ 17.1 µM)	16 (≈ 17.1 µM)	16 (≈ 17.1 µM)	16 (≈ 17.1 µM)	8 (≈ 8.57 µM)	4 (≈ 4.29 µM)	16 (≈ 17.1 µM)	16 (≈ 17.1 µM)	> 128	> 128	> 128	> 128	> 128	–	–
CCCNC1C(C)OC(OCC2C=C(C)C=CC(=O)C(C)CC(CCOc3ccccc3)C(OC3OC(C)C(O)C(N(C)C)C3O)C(C)C(O)CC(=O)OC2CC)C(OC)C1OC (stereo not drawn) [Compound 38, 4"-Deoxy-20-DH-20-O-phenyl-4"-(n-propylamino)desmycosin]	–	–	–	8 (≈ 8.98 µM)	–	8 (≈ 8.98 µM)	4 (≈ 4.49 µM)	–	–	64 (≈ 71.8 µM)	> 128	> 128	> 128	> 128	> 128	–	MIC ([1]; agar-dilution, read-out: MIC): 16 µg/mL (≈ 18 µM); MIC ([2]; agar-dilution, penicillin-resistant strain, read-out: MIC): 16 µg/mL (≈ 18 µM); MIC [3, 18]: 16 µg/mL (≈ 18 µM); MIC ([5]; agar-dilution, read-out: MIC): 16 µg/mL (≈ 18 µM); MIC ([9]; agar-dilution, read-out: MIC): 16 µg/mL (≈ 18 µM)
CCC1OC(=O)CC(O)C(C)C(OC2OC(C)C(OC(C)=O)C(N(C)C)C2OC(C)=O)C(CCOc2ccccc2)CC(C)C(=O)C=CC(C)=CC1COC1OC(C)C([n+]2ccccc2)C(OC)C1OC (stereo not drawn) [Compound 22, 2',4'-Di-O-acetyl-4"-deoxy-20-DH-20-O-phenyl-4"-pyridinium-desmycosin]	2	4	4	4	2	4	4	2	16	16	–	–	> 128	> 128	> 128	64	MIC [12]: 32 µg/mL
CCC1OC(=O)CC(O)C(C)C(OC2OC(C)C(O)C(N(C)C)C2O)C(CCOc2ccccc2)CC(C)C(=O)C=CC(C)=CC1COC1OC(C)C(NCC#N)C(OC)C1OC (stereo not drawn) [Compound 27, 4"-(Cyanomethyl)amino-4"-deoxy-20-DH-20-O-phenyl-desmycosin]	0.5 (≈ 0.563 µM)	1 (≈ 1.13 µM)	0.5 (≈ 0.563 µM)	0.5 (≈ 0.563 µM)	0.5 (≈ 0.563 µM)	0.5 (≈ 0.563 µM)	–	–	8 (≈ 9.01 µM)	16 (≈ 18 µM)	–	–	> 128	> 128	> 128	4 (≈ 4.5 µM)	MIC [12]: 8 µg/mL (≈ 9.01 µM)
CCC1OC(=O)CC(O)C(C)C(OC2OC(C)C(O)C(N(C)C)C2O)C(CCOc2ccccc2)CC(C)C(=O)C=CC(C)=CC1COC1OC(C)C(OCCOC)C(OC)C1OC (stereo not drawn) [Compound 44, 20-DH-4"-(2-Methoxyethoxy)-20-O-phenyl-desmycosin]	2 (≈ 2.2 µM)	2 (≈ 2.2 µM)	2 (≈ 2.2 µM)	2 (≈ 2.2 µM)	2 (≈ 2.2 µM)	2 (≈ 2.2 µM)	4 (≈ 4.4 µM)	4 (≈ 4.4 µM)	8 (≈ 8.81 µM)	32 (≈ 35.2 µM)	> 128	> 128	> 128	> 128	> 128	–	–
CCC1OC(=O)CC(O)C(C)C(OC2OC(C)C(O)C(N(C)C)C2O)C(CCOc2ccccc2)CC(C)C(=O)C=CC(C)=CC1COC1OC(C)/C(=N/OC)C(OC)C1OC (stereo not drawn) [Compound 7, 4"-O-Methoxyimino-20-DH-20-O-phenyl-desmycosin]	1 (≈ 1.14 µM)	1 (≈ 1.14 µM)	1 (≈ 1.14 µM)	1 (≈ 1.14 µM)	1 (≈ 1.14 µM)	1 (≈ 1.14 µM)	–	0.5 (≈ 0.57 µM)	–	–	> 128	> 128	> 128	> 128	> 128	–	MIC ([7]; agar-dilution, read-out: MIC): 2 µg/mL (≈ 2.28 µM); MIC ([9]; agar-dilution, read-out: MIC): 2 µg/mL (≈ 2.28 µM); MIC ([10]; agar-dilution, read-out: MIC): 4 µg/mL (≈ 4.56 µM)
CCC1OC(=O)CC(O)C(C)C(OC2OC(C)C(O)C(N(C)C)C2O)C(CCOc2ccccc2)CC(C)C(=O)C=CC(C)=CC1COC1OC(C)C=C(OC)C1OC (stereo not drawn) [Compound 54, 3",4"-Anhydro-20-DH-20-O-phenyl-desmycosin]	1 (≈ 1.2 µM)	1 (≈ 1.2 µM)	0.5 (≈ 0.601 µM)	1 (≈ 1.2 µM)	1 (≈ 1.2 µM)	0.25 (≈ 0.3 µM)	4 (≈ 4.81 µM)	4 (≈ 4.81 µM)	8 (≈ 9.61 µM)	8 (≈ 9.61 µM)	128 (≈ 154 µM)	128 (≈ 154 µM)	> 128	> 128	> 128	–	–
CCC1OC(=O)CC(O)C(C)C(OC2OC(C)C(OC(C)=O)C(N(C)C)C2OC(C)=O)C(CCOc2ccccc2)CC(C)C(=O)C=CC(C)=CC1COC1OC(C)C(OS(=O)(=O)C(F)(F)F)C(OC)C1OC (stereo not drawn) [Compound 40, 2',4'-Di-O-acetyl-20-DH-20-O-phenyl-4"-O-(trifluoromethanesulfonyl)-desmycosin]	2 (≈ 1.88 µM)	2 (≈ 1.88 µM)	2 (≈ 1.88 µM)	2 (≈ 1.88 µM)	2 (≈ 1.88 µM)	2 (≈ 1.88 µM)	2 (≈ 1.88 µM)	8 (≈ 7.5 µM)	–	–	> 128	> 128	> 128	> 128	> 128	–	MIC ([9]; agar-dilution, read-out: MIC): > 128 µg/mL; MIC ([10]; agar-dilution, read-out: MIC): > 128 µg/mL
CCC1OC(=O)CC(O)C(C)C(OC2OC(C)C(O)C(N(C)C)C2O)C(CCOc2ccccc2)CC(C)C(=O)C=CC(C)=CC1COC1OC(C)C(NC(C)C)C(OC)C1OC (stereo not drawn) [Compound 35, 4"-Deoxy-20-DH-4"-isopropylamino-20-O-phenyldesmycosin]	8 (≈ 8.98 µM)	16 (≈ 18 µM)	16 (≈ 18 µM)	16 (≈ 18 µM)	8 (≈ 8.98 µM)	8 (≈ 8.98 µM)	–	–	64 (≈ 71.8 µM)	–	128 (≈ 144 µM)	128 (≈ 144 µM)	> 128	> 128	> 128	–	MIC ([10]; agar-dilution, read-out: MIC): 128 µg/mL (≈ 144 µM)
CCC1OC(=O)CC(O)C(C)C(OC2OC(C)C(O)C(N(C)C)C2O)C(CCOc2ccccc2)CC(C)C(=O)C=CC(C)=CC1COC1OC(C)C(n2cccc2)C(OC)C1OC (stereo not drawn) [Compound 46, 4"-Deoxy-20-DH-20-O-phenyl-4"-pyrrol-1-yl-desmycosin]	8 (≈ 8.9 µM)	8 (≈ 8.9 µM)	8 (≈ 8.9 µM)	8 (≈ 8.9 µM)	8 (≈ 8.9 µM)	4 (≈ 4.45 µM)	16 (≈ 17.8 µM)	2 (≈ 2.22 µM)	32 (≈ 35.6 µM)	64 (≈ 71.2 µM)	> 128	> 128	> 128	–	> 128	–	–
CCC1OC(=O)CC(O)C(C)C(OC2OC(C)C(O)C(N(C)C)C2O)C(CCOc2ccccc2)CC(C)C(=O)C=CC(C)=CC1COC1OC(C)C(N(C)C)C(OC)C1OC (stereo not drawn) [Compound 33, 4"-Deoxy-20-DH-4"-dimethylamino-20-O-phenyl-desmycosin]	4 (≈ 4.56 µM)	4 (≈ 4.56 µM)	–	4 (≈ 4.56 µM)	–	–	–	–	32 (≈ 36.5 µM)	64 (≈ 73 µM)	–	–	> 128	> 128	> 128	64 (≈ 73 µM)	MIC [3, 18]: 2 µg/mL (≈ 2.28 µM); MIC ([5]; agar-dilution, read-out: MIC): 2 µg/mL (≈ 2.28 µM); MIC ([6]; agar-dilution, read-out: MIC): 2 µg/mL (≈ 2.28 µM); MIC [12]: 64 µg/mL (≈ 73 µM)
CCC1OC(=O)CC(O)C(C)C(OC2OC(C)C(O)C(N(C)C)C2O)C(CCOc2ccccc2)CC(C)C(=O)C=CC(C)=CC1COC1OC(C)C(NC)C(OC)C1OC (stereo not drawn) [Compound 31, 4"-Deoxy-20-DH-4"-methylamino-20-O-phenyl-desmycosin]	0.5 (≈ 0.579 µM)	0.5 (≈ 0.579 µM)	0.5 (≈ 0.579 µM)	0.25 (≈ 0.29 µM)	–	0.5 (≈ 0.579 µM)	–	–	2 (≈ 2.32 µM)	2 (≈ 2.32 µM)	–	–	> 128	> 128	> 128	32 (≈ 37.1 µM)	MIC ([7]; agar-dilution, read-out: MIC): 0.125 µg/mL (≈ 0.145 µM); MIC ([8]; agar-dilution, read-out: MIC): 0.125 µg/mL (≈ 0.145 µM)
